According to patent publication US20180085385A1, “GLUCOSE-SENSITIVE CELL PROTECTING AGENT” (THE UNIVERSITY OF TOKYO, priority 2015, published 2018):

How the values were obtained:
[1] = system: orexin nerve cells differentiated from human iPS cells; experiment: Protection or recovery of orexin nerve cells under high glucose by various ManNAc derivatives (Example 3); type: cell-based; conditions: for recovery activity of orexin production (Hcrt expression intensity): 12-day course: high glucose 25 mM from day 0, compound 1 μM added from +day 8, harvested +day 12
Method: (§1) Total RNA was extracted from the harvested cells by using RNeasy plus Mini Kit (QIAGEN). Then, using SuperScript III First Strand Synthesis System (Invitrogen), a reverse transcription reaction was performed in a reaction mixture containing total RNA (1 μg) and Oligo (dT), whereby cDNA was synthesized.
(§2) PCR reaction was performed on a 10 μl scale, 1 U LA-Tag DNA Polymerase (Takara) was added to 0.5 μl of cDNA, 5 μl of 2×GC Buffer I, 200 μM of each dNTP, 1.5 mM MgCl2 and final concentration 0.2 μM of each primer and, after heat denaturation at 95° C. for 3 min, and PCR was performed under the conditions of (95° C. 30 sec, 55° C. 30 sec, 72° C. 30 sec)×35 cycles (20 cycles for Actb). The primers used are shown below.
(§3) Each PCR product was electrophoresed on 2% agarose gel and stained with ethidium bromide, and the bands were observed by UV irradiation.
The orexin nerve cells were cultured in a neuronal differentiation medium (G-MEM+10% KSR (KnockOut Serum Replacement, Invitrogen)) for 8 days or 12 days, and maintained in vitro. In this case, the glucose concentration of the medium was set to a high glucose concentration (25 mM), ManNAc or various ManNAc derivatives (each 1 μM) were added, and the cells were cultured. In the 8-day culture course, glucose and ManNAc or various ManNAc derivatives were added to the medium from the start of the culture (+day 0), the cells were harvested on +day 8 the orexin expression was analyzed. As a control, orexin nerve cells cultured at low glucose concentration (5 mM) were prepared. In the 12-day culture course, high glucose was added from the start of the culture (+day 0), ManNAc or various ManNAc derivatives were added to the medium from +day 8 from the start of the culture, the cells were harvested on +day 12, and the orexin expression was analyzed. As a control, orexin nerve cells cultured at low glucose concentration (5 mM) from +day 8 from the start of the culture were prepared. According to the expression analysis by the RT-PCR method described in Reference Example 1, the expression of Hcrt gene was examined. Based on the expression of Hcrt gene in orexin nerve cells at the start of the culture, expression of Hcrt gene in orexin nerve cells after culture with the addition of ManNAc or various ManNAc derivatives under high glucose conditions is shown by expression intensity (FIG. 3).

[2] = system: human iPS cells; experiment: Orexin cell induction from human iPS cells (SDIA differentiation culture, Hcrt RT-PCR); type: cell-based; conditions: for orexin cell induction activity (Hcrt expression): 8, 40, 200 nM, 1 μM and 5 μM instead of 1.0 mM ManNAc, compared to ManNAc
Method: Human iPS cell line 201B7 (HSP0001) was obtained from BioResource Center, RIKEN, Japan via National BioResource project (MEXT, Japan). Human iPS cells were maintained on a feeder layer of mitomycin C-treated STO/Neo resistant/LIF(SNL) feeder cells in primates ES medium (ReproCELL) supplemented with 5 ng/mL recombinant human bFGF (Wako). For differentiation induction into nerve by SDIA and BMP4 system, human iPS cells were cocultured with PA6 for 20 days. 5 nM BMP4 was supplemented from day 7. From the start of the differentiation culture (day 0), ManNAc was added to a neuronal differentiation medium to 1.0 mM, and the medium was exchanged on days 7, 10 and 14 of differentiation culture. In addition, 5 nM recombinant human BMP4 (Wako) was added from day 7 of the differentiation culture. On day 14 of the differentiation culture, EX-527 (SIGMA-ALDRICH) was added to neuronal differentiation medium to 50 nM, or BADGP (SIGMA-ALDRICH) was added to neuronal differentiation medium to 5 mM, and the cells were harvested on day 20 of the differentiation culture and subjected to RT-PCR.
as §1, §2, §3
According to the method described in Reference Example 1 except that ManNAc, ManNAcF, 5S-ManNAc, 5S-ManNAcF, ManNCOOMe or ManNCOOEt (8, 40, 200 nM, 1 μM and 5 μM, respectively) was added instead of 1.0 mM ManNAc, orexin cells were induced from human iPS cells. The expression of orexin gene (Hcrt) in the cells induced under the various conditions was examined.

[3] = system: orexin nerve cells differentiated from human iPS cells; experiment: Disappearance of orexin nerve cells under high glucose concentration and protection or recovery from disappearance (Example 1); type: cell-based; conditions: for recovery of orexin nerve cells (expression of orexin): culture under high glucose concentration extended for 2 or 4 more days, compound then added to the medium; for disappearance of the orexin nerve cells (orexin (Hcrt) expression): high glucose concentration (25 mM), 8 days, addition concentration 10 μM ManNAc, 1 μM ManNAcF
Method: as §1, §2, §3
The orexin nerve cells were cultured in a neuronal differentiation medium (G-MEM+10% KSR (Knockout Serum Replacement, Invitrogen)) for 8 days, and maintained in vitro. In this case, the cells were divided based on the glucose concentration in the medium into two groups having low glucose concentration (5 mM) and high glucose concentration (25 mM) and cultured.

[4] = system: Gne/Mnk M712T homozygous mutant mouse; conditions: mutant mice otherwise did not survive beyond age 3 after birth; cited from earlier work
[5] = system: orexin nerve cells in the brain of diabetic model mice (db/db mouse); experiment: Protection of nerve cells from disappearance at individual level, high fat feed db/db mouse, in situ hybridization; type: in vivo; conditions: high fat feed 6 to 8 weeks of age, 5 μg/μl ManNAc containing drinking water
Method: To confirm effectiveness of ManNAc for nerve cell protection at an individual level, the number of orexin nerve cells and orexin expression were examined using genetically obese mouse (db/db mouse, hetero mouse as control, all male) (each group n=6). The breeding conditions of each group (6-8 weeks old) are as described below. […]
high fat feed+drinking water group high fat feed+5 μg/μl ManNAc containing drinking water group normal food+drinking water group normal food+5 μg/μl ManNAc containing drinking water group
Three individual mice from each group mentioned above were subjected to Nembutal anesthesia, and perfusion was fixed with formamide fixative (Genostaff). The brain was taken out, embedded in paraffin, and sections with 6 μm thickness in the sagittal direction were prepared. […]
was cloned into […] vector (Promega), and using DIG RNA Labeling Mix (Roche) and the plasmid as a template, digoxigenin-labeled RNA probe was prepared. […] The cells expressing orexin gene were counted, and the mean of 3 individuals and standard error were determined.

[6] = system: renal proximal tubule epithelial cells derived from type II diabetes patients (D-RPTEC); experiment: Histone O-GlcNAc modification level in D-RPTEC by immunofluorescence staining; type: cell-based, human; conditions: D-RPTEC cultured 96 hr under high glucose (25 mM glucose)
Method: Normal human renal proximal tubule epithelial cells and RPTEC derived from type II diabetes patients (D-RPTEC) were purchased from Lonza. RPTEC and D-RPTEC maintained with REGM™ Renal Epithelial Cell proliferation Medium Bullet Kit (Lonza) were each seeded in a 4-well dish at 1×10^4 cells per 1 well, and cultured for 4 days in a control medium or high glucose medium (adjusted to final concentration of 25 mM with 2.5 M glucose solution).
The cultured cells were fixed with 4% para-formaldehyde for 20 min and, after a permeabilization treatment with 0.2% TritonX-100-PBS solution, treated overnight with a blocking solution [PBS(−) containing 5% bovine serum-derived albumin (BSA), 0.1% Tween20, 0.2% TritonX-100] at 4° C. Then, the cells were reacted with anti-histone O-GlcNAc antibody (20B2) diluted with 5% BSA-PBS(−)-0.1% Tween20 at 4° C. overnight, reacted with secondary antibody diluted with PBS(−) at room temperature for 1 hr. The nucleus was stained with 1 μg/ml DAPI (Dojindo) at room temperature for 20 min, mounted in mountant (VECTASHIELD), and slides were prepared. Observation was performed with an integrated confocal laser microscope (FV10i, OLYMPUS). After obtaining images, the number of O-GlcNAc signals in the nucleus was measured by image analysis software Cell Profiler (www.cellprofiler.org), and statistical processing was performed by Wilcoxon rank-sum test. […]

Row | SMILES | recovery activity of orexin production (Hcrt expression intensity) [1] | orexin cell induction activity (Hcrt expression) [2] | recovery of orexin nerve cells (expression of orexin) [3] | further results
1 | CCOC(=O)NC1C(O)OC(CO)[C@@H](O)C1O (stereo partly shown) [ManNCOOEt] | low activity | higher orexin cell induction activity as compared to ManNAc |  | 
2 | CC(=O)N[C@H]1[C@@H](OCc2ccccc2)O[C@H](CO)[C@H](O)[C@@H]1O [BADGP, reference compound] |  |  | completely ineffective | 
3 | CC(=O)N[C@@H]1C(O)O[C@H](CO)[C@@H](O)[C@@H]1O (stereo partly drawn) [ManNAc, N-acetyl-D-mannosamine] | higher |  | expression of orexin was observed | survival of Gne/Mnk M712T homozygous mutant mice [4]: rescued the mice; decrease in the number of orexin nerve cells and the orexin gene expression [5]: suppressed; disappearance of the orexin nerve cells (orexin (Hcrt) expression) [3]: disappearance of the orexin nerve cells could be avoided; histone O-GlcNAc modification level [6]: increase in the histone O-GlcNAc modification level was observed; expression of orexin gene (Hcrt) ([2]; 1.0 mM ManNAc from day 0, EX-527 50 nM or BADGP 5 mM from day 14, harvested day 20): expression of Hcrt was observed
4 | CC(=O)NC1C(O)SC(CO)[C@@H](O)[C@@H]1O (stereo partly drawn) [5S-ManNAc] | low activity |  |  | 
5 | NC(=O)C1CCCc2c1[nH]c1ccc(Cl)cc21 (stereo not shown) [EX-527, reference compound] |  |  | completely ineffective | 
6 | COC(=O)NC1C(O)OC(CO)[C@@H](O)C1O (stereo partly shown) [ManNCOOMe] | low activity | higher orexin cell induction activity as compared to ManNAc |  | maintenance of orexin production (Hcrt expression intensity) ([1]; 8-day course: high glucose 25 mM and compound 1 μM from +day 0, harvested +day 8): orexin production was maintained except for ManNCOOMe
7 | O=C(CF)NC1C(O)OC(CO)[C@@H](O)[C@@H]1O (stereo partly shown) [ManNAcF] | highest activity | higher orexin cell induction activity as compared to ManNAc | expression of orexin was observed | disappearance of the orexin nerve cells (orexin (Hcrt) expression) [3]: disappearance of the orexin nerve cells could be avoided
